In ChEMBL document CHEMBL5465560, “Selectivity Literature for EUbOPEN Chemogenomic Library” (2024):

What was measured:
[1] = target: NUAK family SNF1-like kinase 1 (Homo sapiens, UniProt O60285); experiment: Selectivity interaction (Enzymatic assay) EUB0001199aCl NUAK1
[2] = target: Histone acetyltransferase p300 (Homo sapiens) (UniProt Q09472); experiment: Selectivity interaction (Human bromodomain panel (DSF assay)) EUB0000233b EP300
[3] = target: Histone-lysine N-methyltransferase ASH1L (Homo sapiens) (UniProt Q9NR48); experiment: Selectivity interaction (Transferase panel (protein, RNA, and DNA methyltransferases. and EP300 (acetyltransferase))) EUB0000270b ASH1L
[4] = target: Serine/threonine-protein kinase 10 (Homo sapiens) (UniProt O94804); conditions: at 10 µM
Sequence of Serine/threonine-protein kinase 10 (Homo sapiens) (O94804 whole entry, looked up): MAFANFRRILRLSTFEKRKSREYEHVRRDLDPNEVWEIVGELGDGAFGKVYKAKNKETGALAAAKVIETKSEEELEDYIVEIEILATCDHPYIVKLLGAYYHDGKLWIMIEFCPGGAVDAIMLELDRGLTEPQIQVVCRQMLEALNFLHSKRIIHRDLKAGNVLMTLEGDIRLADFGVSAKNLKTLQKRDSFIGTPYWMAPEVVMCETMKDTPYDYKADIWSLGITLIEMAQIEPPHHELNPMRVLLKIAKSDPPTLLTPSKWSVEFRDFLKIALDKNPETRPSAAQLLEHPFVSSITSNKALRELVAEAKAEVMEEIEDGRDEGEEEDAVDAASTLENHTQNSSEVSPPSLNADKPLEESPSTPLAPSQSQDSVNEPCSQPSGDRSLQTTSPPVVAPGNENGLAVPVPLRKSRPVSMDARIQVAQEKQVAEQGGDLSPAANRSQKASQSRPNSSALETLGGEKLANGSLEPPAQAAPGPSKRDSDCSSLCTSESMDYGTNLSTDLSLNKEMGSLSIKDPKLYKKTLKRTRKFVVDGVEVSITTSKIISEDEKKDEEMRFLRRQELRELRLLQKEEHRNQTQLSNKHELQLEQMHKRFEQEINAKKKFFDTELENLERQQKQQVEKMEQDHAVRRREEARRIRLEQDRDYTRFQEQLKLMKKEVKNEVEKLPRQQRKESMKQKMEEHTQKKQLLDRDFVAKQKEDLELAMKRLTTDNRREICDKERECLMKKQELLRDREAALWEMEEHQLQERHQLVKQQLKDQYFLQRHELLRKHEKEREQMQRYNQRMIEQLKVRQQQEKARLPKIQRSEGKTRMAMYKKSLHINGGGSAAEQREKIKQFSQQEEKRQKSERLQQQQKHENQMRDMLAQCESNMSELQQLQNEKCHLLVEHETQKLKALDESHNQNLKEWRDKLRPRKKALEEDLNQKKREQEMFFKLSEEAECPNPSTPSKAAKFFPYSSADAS

[5] = target: Protein-tyrosine kinase 6 (Homo sapiens, UniProt Q13882)
Sequence of Protein-tyrosine kinase 6 (Q13882 whole entry, canonical isoform): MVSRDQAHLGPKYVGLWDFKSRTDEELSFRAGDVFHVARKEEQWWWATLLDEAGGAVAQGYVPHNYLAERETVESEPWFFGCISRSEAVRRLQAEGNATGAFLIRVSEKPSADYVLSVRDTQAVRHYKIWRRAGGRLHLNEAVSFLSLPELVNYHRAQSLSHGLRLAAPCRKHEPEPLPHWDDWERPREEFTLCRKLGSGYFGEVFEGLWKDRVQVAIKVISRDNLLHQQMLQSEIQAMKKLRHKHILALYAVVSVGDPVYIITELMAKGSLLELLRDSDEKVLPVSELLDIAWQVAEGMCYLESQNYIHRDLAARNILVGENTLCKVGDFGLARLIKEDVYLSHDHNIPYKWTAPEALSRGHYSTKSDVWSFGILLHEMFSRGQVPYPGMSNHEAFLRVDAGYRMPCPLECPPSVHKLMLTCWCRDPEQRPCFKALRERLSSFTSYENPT

[6] = target: T1, Phosphatidylinositol 4,5-bisphosphate 3-kinase catalytic subunit delta isoform (Homo sapiens) (UniProt O00329); experiment: Selectivity interaction (ActivX KiNativ screen (ex vivo kinase selectivity in human PBMCs)) EUB0001619a PIK3CD; assay type: cell-based; conditions: PBMC, at 1 µM
T1 sequence (whole entry): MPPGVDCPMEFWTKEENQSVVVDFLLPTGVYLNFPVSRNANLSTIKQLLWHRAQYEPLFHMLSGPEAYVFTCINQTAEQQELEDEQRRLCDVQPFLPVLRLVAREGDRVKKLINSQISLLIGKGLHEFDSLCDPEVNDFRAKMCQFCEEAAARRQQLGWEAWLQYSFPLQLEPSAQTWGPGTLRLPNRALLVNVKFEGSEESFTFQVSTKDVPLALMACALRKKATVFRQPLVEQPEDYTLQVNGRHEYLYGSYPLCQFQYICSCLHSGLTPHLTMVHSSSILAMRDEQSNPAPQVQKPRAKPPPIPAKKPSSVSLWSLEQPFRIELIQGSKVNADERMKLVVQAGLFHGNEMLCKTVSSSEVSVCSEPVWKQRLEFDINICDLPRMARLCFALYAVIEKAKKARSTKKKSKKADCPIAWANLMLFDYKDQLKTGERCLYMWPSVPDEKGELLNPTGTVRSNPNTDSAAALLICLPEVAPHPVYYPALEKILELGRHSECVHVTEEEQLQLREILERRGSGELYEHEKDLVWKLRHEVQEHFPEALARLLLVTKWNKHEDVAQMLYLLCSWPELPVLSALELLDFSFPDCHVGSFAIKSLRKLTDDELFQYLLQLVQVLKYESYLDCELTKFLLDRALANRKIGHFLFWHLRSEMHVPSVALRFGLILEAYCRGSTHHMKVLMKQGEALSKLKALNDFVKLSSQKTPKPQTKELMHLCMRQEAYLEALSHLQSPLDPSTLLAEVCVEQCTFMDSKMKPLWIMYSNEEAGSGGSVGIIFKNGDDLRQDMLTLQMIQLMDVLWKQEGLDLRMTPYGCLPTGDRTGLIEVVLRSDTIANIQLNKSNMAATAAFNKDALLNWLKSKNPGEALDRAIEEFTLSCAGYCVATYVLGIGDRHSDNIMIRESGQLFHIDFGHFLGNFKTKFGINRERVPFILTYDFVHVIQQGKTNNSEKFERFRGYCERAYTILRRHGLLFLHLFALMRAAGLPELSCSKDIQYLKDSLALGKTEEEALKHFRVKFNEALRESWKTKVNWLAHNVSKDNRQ

[7] = target: Serine/threonine-protein kinase VRK2 (Homo sapiens) (UniProt Q86Y07); experiment: Selectivity interaction (KinomeScan (DiscoverX)) EUB0000695a VRK2; conditions: at 100 nM
Sequence of Serine/threonine-protein kinase VRK2 (Homo sapiens) (Q86Y07 whole entry): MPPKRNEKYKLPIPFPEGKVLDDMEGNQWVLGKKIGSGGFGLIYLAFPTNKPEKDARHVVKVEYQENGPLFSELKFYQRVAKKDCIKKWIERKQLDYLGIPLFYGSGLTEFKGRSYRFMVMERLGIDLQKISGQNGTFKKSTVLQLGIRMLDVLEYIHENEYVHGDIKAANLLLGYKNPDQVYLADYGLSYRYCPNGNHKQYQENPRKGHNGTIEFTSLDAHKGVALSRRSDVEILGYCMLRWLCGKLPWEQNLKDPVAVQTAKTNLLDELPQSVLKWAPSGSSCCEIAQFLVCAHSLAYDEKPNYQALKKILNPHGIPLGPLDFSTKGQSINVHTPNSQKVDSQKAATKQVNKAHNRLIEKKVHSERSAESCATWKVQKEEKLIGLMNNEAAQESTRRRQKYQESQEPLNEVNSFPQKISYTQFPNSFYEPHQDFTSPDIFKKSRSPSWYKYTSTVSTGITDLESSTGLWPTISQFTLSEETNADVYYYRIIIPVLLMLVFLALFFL

[8] = target: Insulin-like growth factor 1 receptor (Homo sapiens, UniProt P08069); experiment: Selectivity interaction (KinomeScan (DiscoverX)) EUB0000607a IGF1R; conditions: at 10 µM
Sequence of Insulin-like growth factor 1 receptor (P08069 31-736 limits assumed): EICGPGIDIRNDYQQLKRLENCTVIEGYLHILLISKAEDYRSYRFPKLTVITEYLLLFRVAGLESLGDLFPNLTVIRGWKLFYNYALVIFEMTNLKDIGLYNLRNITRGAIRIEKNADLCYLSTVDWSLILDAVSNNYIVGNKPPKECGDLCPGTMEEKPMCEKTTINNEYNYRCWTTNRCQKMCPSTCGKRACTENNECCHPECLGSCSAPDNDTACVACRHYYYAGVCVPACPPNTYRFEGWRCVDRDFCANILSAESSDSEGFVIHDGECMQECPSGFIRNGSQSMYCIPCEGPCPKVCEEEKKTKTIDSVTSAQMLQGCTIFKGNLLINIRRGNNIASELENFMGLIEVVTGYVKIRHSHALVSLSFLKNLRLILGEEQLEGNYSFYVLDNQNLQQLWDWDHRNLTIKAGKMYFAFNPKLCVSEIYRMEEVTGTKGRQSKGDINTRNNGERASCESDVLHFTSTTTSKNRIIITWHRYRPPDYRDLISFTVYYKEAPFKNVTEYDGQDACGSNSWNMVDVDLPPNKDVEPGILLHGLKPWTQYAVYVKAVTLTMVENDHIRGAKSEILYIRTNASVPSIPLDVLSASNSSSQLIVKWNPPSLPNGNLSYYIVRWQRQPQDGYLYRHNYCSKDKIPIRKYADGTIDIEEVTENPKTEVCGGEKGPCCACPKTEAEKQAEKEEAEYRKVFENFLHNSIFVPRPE
Sequence of Insulin-like growth factor 1 receptor (P08069 741-1367 limits assumed): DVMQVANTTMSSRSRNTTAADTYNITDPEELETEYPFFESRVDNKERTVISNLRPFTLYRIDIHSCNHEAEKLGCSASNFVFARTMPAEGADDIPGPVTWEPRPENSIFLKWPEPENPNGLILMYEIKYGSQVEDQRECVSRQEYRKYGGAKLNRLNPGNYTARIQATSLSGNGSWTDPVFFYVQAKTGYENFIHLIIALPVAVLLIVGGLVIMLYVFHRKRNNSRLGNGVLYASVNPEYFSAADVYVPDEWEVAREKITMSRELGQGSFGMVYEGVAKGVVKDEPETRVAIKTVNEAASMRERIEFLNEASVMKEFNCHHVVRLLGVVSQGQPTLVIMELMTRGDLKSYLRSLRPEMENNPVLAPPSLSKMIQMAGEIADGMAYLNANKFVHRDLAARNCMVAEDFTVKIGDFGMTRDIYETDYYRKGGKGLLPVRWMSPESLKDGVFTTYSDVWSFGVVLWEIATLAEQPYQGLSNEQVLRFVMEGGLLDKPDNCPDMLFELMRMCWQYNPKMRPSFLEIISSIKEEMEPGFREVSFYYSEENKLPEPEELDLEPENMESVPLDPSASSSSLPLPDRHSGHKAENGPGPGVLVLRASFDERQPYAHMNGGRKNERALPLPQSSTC

[9] = target: T2, Serine/threonine-protein kinase LATS2 (Homo sapiens) (UniProt Q9NRM7); experiment: Selectivity interaction (LanthaScreen Eu Kinase Binding Assay) EUB0001632a LATS2; conditions: at 10 µM
T2 sequence (whole entry): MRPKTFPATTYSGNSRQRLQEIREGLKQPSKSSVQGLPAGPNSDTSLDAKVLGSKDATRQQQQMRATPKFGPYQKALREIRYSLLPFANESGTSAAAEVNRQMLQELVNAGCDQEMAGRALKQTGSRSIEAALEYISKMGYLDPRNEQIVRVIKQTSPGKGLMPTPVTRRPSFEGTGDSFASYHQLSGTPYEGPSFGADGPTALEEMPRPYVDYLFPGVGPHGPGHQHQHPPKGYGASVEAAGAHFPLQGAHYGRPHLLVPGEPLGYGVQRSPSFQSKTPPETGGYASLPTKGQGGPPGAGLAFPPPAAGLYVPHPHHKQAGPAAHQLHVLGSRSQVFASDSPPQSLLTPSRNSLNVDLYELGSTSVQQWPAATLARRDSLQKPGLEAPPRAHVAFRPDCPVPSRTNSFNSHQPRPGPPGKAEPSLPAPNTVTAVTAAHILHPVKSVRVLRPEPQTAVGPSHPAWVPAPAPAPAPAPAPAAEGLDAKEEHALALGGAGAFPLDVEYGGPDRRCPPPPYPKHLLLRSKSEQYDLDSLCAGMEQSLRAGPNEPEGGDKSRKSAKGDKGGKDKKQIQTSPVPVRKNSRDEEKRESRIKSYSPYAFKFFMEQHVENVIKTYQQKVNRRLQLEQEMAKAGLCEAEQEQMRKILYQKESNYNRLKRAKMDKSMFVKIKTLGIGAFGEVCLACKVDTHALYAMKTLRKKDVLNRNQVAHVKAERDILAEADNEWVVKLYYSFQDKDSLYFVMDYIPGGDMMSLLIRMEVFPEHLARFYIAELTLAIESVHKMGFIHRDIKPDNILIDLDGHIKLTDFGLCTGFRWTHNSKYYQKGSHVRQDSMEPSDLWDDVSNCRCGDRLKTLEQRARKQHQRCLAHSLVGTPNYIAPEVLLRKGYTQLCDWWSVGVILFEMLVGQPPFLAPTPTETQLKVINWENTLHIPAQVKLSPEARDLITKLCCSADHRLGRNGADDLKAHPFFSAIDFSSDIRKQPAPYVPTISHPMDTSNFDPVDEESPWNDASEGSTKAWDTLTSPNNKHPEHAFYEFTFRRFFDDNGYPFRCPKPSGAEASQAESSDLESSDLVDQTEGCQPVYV

Sequence of NUAK family SNF1-like kinase 1 (O60285 whole entry): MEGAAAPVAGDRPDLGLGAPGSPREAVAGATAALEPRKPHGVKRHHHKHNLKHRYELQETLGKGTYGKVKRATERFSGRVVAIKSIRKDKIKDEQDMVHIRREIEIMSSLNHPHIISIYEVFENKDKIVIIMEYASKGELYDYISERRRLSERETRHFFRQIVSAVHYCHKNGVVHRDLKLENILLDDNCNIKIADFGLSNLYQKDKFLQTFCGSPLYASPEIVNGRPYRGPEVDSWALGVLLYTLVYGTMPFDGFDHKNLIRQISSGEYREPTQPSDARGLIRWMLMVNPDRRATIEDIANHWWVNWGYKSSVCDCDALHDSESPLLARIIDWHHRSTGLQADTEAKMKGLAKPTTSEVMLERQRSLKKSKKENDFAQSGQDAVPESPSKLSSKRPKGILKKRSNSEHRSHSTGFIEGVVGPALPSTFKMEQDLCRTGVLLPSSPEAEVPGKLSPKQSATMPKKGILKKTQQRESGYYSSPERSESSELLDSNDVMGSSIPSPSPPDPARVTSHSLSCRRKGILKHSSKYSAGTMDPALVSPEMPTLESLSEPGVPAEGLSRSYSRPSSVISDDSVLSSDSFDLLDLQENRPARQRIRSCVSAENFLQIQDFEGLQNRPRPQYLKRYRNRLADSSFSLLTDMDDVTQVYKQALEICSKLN

## CN1Cc2nccc(-c3cn(C)nc3-c3ccc(F)cc3)c2C1=O
[1]
  IC50: 10.2 µM

## CN(C)CCCOc1ccc(-c2cc(NCCCn3cccn3)nc(S(C)(=O)=O)n2)cc1
[2]
  dTM: < 2 K

## Cc1cc(CN)cc(C)c1-c1ncn(C)c1-c1cncn1C
[3]; at 1 µM
  % activity: > 90%
[3]; at 10 µM
  % activity: > 80%

## COCC(=O)NC/C=C/c1ccc2ncnc(Nc3ccc(Oc4ccc(C)nc4)c(C)c3)c2c1 [CP-724714]
[4]
  % of control: 4.2%

## CCc1cccc(CC)c1NC(=O)c1nn(C)c2c1CCc1cnc(Nc3ccc(C(=O)NC4CCN(C)CC4)cc3OC(F)(F)F)nc1-2
[5]
  IC50: > 10 µM

## N#Cc1cccc(-c2c[nH]c3ncnc(N4CCOCC4)c23)c1
[6]
  % of inhibition: -12%

## Cc1cc(F)c(C(=O)Nc2cccc(-c3nncn3C(C)C)n2)cc1-n1cnc(C2CC2)c1
[7]
  % of control: 100%

## CNC(=O)Nc1ccc(-c2nc(N3CC4CCC(C3)O4)c3cnn(C4CCC5(CC4)OCCO5)c3n2)cc1
[8]
  % of control: 93%

## Cn1cc(-n2cnc3c(NCc4nc5cc(Cl)c(Cl)cc5[nH]4)nc(N4CCOCC4)nc32)cn1
[9]
  % of inhibition: 1.75%
